According to publication PMC8330742, “New benzothieno[2,3-c]pyridines as non-steroidal CYP17 inhibitors: design, synthesis, anticancer screening, apoptosis induction, and in silico ADME profile studies” (Journal of Enzyme Inhibition and Medicinal Chemistry, 2021):

Assays:
[1] = tested on: CCRF-CEM; experiment: NCI-60 SRB screen; type: cell-based; conditions: single dose 10^−5 M
[2] = tested on: HL-60(TB); experiment: NCI-60 SRB screen; type: cell-based, human; conditions: HL-60 (TB); single dose 10^−5 M
[3] = tested on: K-562; experiment: NCI-60 SRB screen; type: cell-based, human; conditions: K-562; single dose 10^−5 M
[4] = tested on: MOLT-4; experiment: NCI-60 SRB screen; type: cell-based; conditions: MOLT-4; single dose 10^−5 M
[5] = tested on: RPMI-8226; experiment: NCI-60 SRB screen; type: cell-based; conditions: RPMI-8226; single dose 10^−5 M
[6] = tested on: SR; experiment: NCI-60 SRB screen; type: cell-based; conditions: single dose 10^−5 M
[7] = tested on: A549/ATCC; experiment: NCI-60 SRB screen; type: cell-based, human; conditions: single dose 10^−5 M
[8] = tested on: EKVX; experiment: NCI-60 SRB screen; type: cell-based, human; conditions: single dose 10^−5 M
[9] = tested on: HOP-62; experiment: NCI-60 SRB screen; type: cell-based, human; conditions: HOP-62; single dose 10^−5 M
[10] = tested on: HOP-92; experiment: NCI-60 SRB screen; type: cell-based, human; conditions: HOP-92; single dose 10^−5 M
[11] = tested on: NCI-H226; experiment: NCI-60 SRB screen; type: cell-based, human; conditions: NCI-H226; single dose 10^−5 M
[12] = tested on: NCI-H23; experiment: NCI-60 SRB screen; type: cell-based, human; conditions: NCI-H23; single dose 10^−5 M
[13] = tested on: NCI-H322M; experiment: NCI-60 SRB screen; type: cell-based, human; conditions: single dose 10^−5 M
[14] = tested on: NCI-H460; experiment: NCI-60 SRB screen; type: cell-based, human; conditions: NCI-H460; single dose 10^−5 M
[15] = tested on: NCI-H522; experiment: NCI-60 SRB screen; type: cell-based, human; conditions: NCI-H522; single dose 10^−5 M
[16] = tested on: COLO 205; experiment: NCI-60 SRB screen; type: cell-based, human; conditions: COLO 205; single dose 10^−5 M
[17] = tested on: HCC-2998; experiment: NCI-60 SRB screen; type: cell-based, human; conditions: HCC-2998; single dose 10^−5 M
[18] = tested on: HCT-116; experiment: NCI-60 SRB screen; type: cell-based, human; conditions: HCT-116; single dose 10^−5 M
[19] = tested on: HCT-15; experiment: NCI-60 SRB screen; type: cell-based, human; conditions: HCT-15; single dose 10^−5 M
[20] = tested on: HT-29; experiment: NCI-60 SRB screen; type: cell-based; conditions: HT-29; single dose 10^−5 M
[21] = tested on: KM12; experiment: NCI-60 SRB screen; type: cell-based, human; conditions: KM12; single dose 10^−5 M
[22] = tested on: SW-620; experiment: NCI-60 SRB screen; type: cell-based; conditions: SW-620; single dose 10^−5 M
[23] = tested on: SF-268; experiment: NCI-60 SRB screen; type: cell-based, human; conditions: SF-268; single dose 10^−5 M
[24] = tested on: SF-295; experiment: NCI-60 SRB screen; type: cell-based, human; conditions: SF-295; single dose 10^−5 M
[25] = tested on: SF-539; experiment: NCI-60 SRB screen; type: cell-based, human; conditions: SF-539; single dose 10^−5 M
[26] = tested on: SNB-19; experiment: NCI-60 SRB screen; type: cell-based; conditions: SNB-19; single dose 10^−5 M
[27] = tested on: SNB-75; experiment: NCI-60 SRB screen; type: cell-based, human; conditions: SNB-75; single dose 10^−5 M
[28] = tested on: U251; experiment: NCI-60 SRB screen; type: cell-based, human; conditions: U251; single dose 10^−5 M
[29] = tested on: LOX IMVI; experiment: NCI-60 SRB screen; type: cell-based, human; conditions: single dose 10^−5 M
[30] = tested on: MALME-3M; experiment: NCI-60 SRB screen; type: cell-based, human; conditions: single dose 10^−5 M
[31] = tested on: M14; experiment: NCI-60 SRB screen; type: cell-based, human; conditions: M14; single dose 10^−5 M
[32] = tested on: MDA-MB-435; experiment: NCI-60 SRB screen; type: cell-based; conditions: MDA-MB435; single dose 10^−5 M
[33] = tested on: SK-MEL-2; experiment: NCI-60 SRB screen; type: cell-based, human; conditions: SK-MEL-2; single dose 10^−5 M
[34] = tested on: SK-MEL-28; experiment: NCI-60 SRB screen; type: cell-based; conditions: SK-MEL-28; single dose 10^−5 M
[35] = tested on: SK-MEL-5; experiment: NCI-60 SRB screen; type: cell-based, human; conditions: SK-MEL-5; single dose 10^−5 M
[36] = tested on: UACC-257; experiment: NCI-60 SRB screen; type: cell-based, human; conditions: UACC-275 (so in the source); single dose 10^−5 M
[37] = tested on: UACC-62; experiment: NCI-60 SRB screen; type: cell-based, human; conditions: UACC-62; single dose 10^−5 M
[38] = tested on: IGROV1; experiment: NCI-60 SRB screen; type: cell-based, human; conditions: IGROV1; single dose 10^−5 M
[39] = tested on: OVCAR-3; experiment: NCI-60 SRB screen; type: cell-based, human; conditions: OVCAR-3; single dose 10^−5 M
[40] = tested on: OVCAR-4; experiment: NCI-60 SRB screen; type: cell-based, human; conditions: OVCAR-4; single dose 10^−5 M
[41] = tested on: OVCAR-5; experiment: NCI-60 SRB screen; type: cell-based, human; conditions: OVCAR-5; single dose 10^−5 M
[42] = tested on: OVCAR-8; experiment: NCI-60 SRB screen; type: cell-based, human; conditions: OVCAR-8; single dose 10^−5 M
[43] = tested on: NCI/ADR-RES; experiment: NCI-60 SRB screen; type: cell-based, human; conditions: single dose 10^−5 M
[44] = tested on: SK-OV-3; experiment: NCI-60 SRB screen; type: cell-based, human; conditions: SK-OV-3; single dose 10^−5 M
[45] = tested on: 786-0; experiment: NCI-60 SRB screen; type: cell-based; conditions: 786-0; single dose 10^−5 M
[46] = tested on: A498; experiment: NCI-60 SRB screen; type: cell-based, human; conditions: A498; single dose 10^−5 M
[47] = tested on: ACHN; experiment: NCI-60 SRB screen; type: cell-based; conditions: single dose 10^−5 M
[48] = tested on: CAKI-1; experiment: NCI-60 SRB screen; type: cell-based, human; conditions: CAKI-1; single dose 10^−5 M
[49] = tested on: RXF 393; experiment: NCI-60 SRB screen; type: cell-based, human; conditions: RXF 393; single dose 10^−5 M
[50] = tested on: SN12C; experiment: NCI-60 SRB screen; type: cell-based, human; conditions: SN 12 C; single dose 10^−5 M
[51] = tested on: TK-10; experiment: NCI-60 SRB screen; type: cell-based, human; conditions: TK-10; single dose 10^−5 M
[52] = tested on: UO-31; experiment: NCI-60 SRB screen; type: cell-based, human; conditions: UO-31; single dose 10^−5 M
[53] = tested on: panel of 60 cancer cell lines; experiment: NCI-60 SRB screen, mean or range over the panel; type: cell-based, human; conditions: mean over the cell lines; single dose 10^−5 M

For `COc1ccc(C2NC(=O)Cc3c2sc2c(F)cccc32)c(OC)c1` (stereo not shown) [Compound 3a], the “Growth inhibition (%)” value [1] was −5.88%, the “Growth inhibition (%)” value [2] was −7.79% and the “Growth inhibition (%)” value [3] was 12.84%. For the same compound, the “Growth inhibition (%)” value [4] was 2.64%, the “Growth inhibition (%)” value [5] was −2.54% and the “Growth inhibition (%)” value [6] was 28.66%. For the same compound, the “Growth inhibition (%)” value [7] was −10.00%, the “Growth inhibition (%)” value [8] was 7.10% and the “Growth inhibition (%)” value [9] was 11.63%. For the same compound, the “Growth inhibition (%)” value [10] was 2.88%, the “Growth inhibition (%)” value [11] was 13.11% and the “Growth inhibition (%)” value [12] was 0.15%. The “Growth inhibition (%)” value [13] was −3.18%, the “Growth inhibition (%)” value [14] was 2.47% and the “Growth inhibition (%)” value [15] was 4.48%. For the same compound, the “Growth inhibition (%)” value [16] was −16.49%, the “Growth inhibition (%)” value [17] was −15.27% and the “Growth inhibition (%)” value [18] was −0.50%. For the same compound, the “Growth inhibition (%)” value [19] was −3.42%, the “Growth inhibition (%)” value [20] was −7.86% and the “Growth inhibition (%)” value [21] was 7.40%. The “Growth inhibition (%)” value [22] was 3.98%, the “Growth inhibition (%)” value [23] was 8.45% and the “Growth inhibition (%)” value [24] was −2.52%. For the same compound, the “Growth inhibition (%)” value [25] was 11.49%, the “Growth inhibition (%)” value [26] was 1.20% and the “Growth inhibition (%)” value [27] was 17.27%. For the same compound, the “Growth inhibition (%)” value [28] was 2.07%, the “Growth inhibition (%)” value [29] was 5.88% and the “Growth inhibition (%)” value [30] was 15.80%. The “Growth inhibition (%)” value [31] was 4.96%, the “Growth inhibition (%)” value [32] was 9.40% and the “Growth inhibition (%)” value [33] was −25.13%. For the same compound, the “Growth inhibition (%)” value [34] was −11.36%, the “Growth inhibition (%)” value [35] was 2.83% and the “Growth inhibition (%)” value [36] was −6.31%. For the same compound, the “Growth inhibition (%)” value [37] was 10.62%, the “Growth inhibition (%)” value [38] was 8.40% and the “Growth inhibition (%)” value [39] was −0.33%. The “Growth inhibition (%)” value [40] was 3.35%, the “Growth inhibition (%)” value [41] was −3.20% and the “Growth inhibition (%)” value [42] was −3.27%. For the same compound, the “Growth inhibition (%)” value [43] was −2.37%, the “Growth inhibition (%)” value [44] was −0.85% and the “Growth inhibition (%)” value [45] was −7.41%. For the same compound, the “Growth inhibition (%)” value [46] was 9.33%, the “Growth inhibition (%)” value [47] was 1.30% and the “Growth inhibition (%)” value [48] was 23.33%. The “Growth inhibition (%)” value [49] was −2.63%, the “Growth inhibition (%)” value [50] was −0.49% and the “Growth inhibition (%)” value [51] was −29.42%. For the same compound, the “Growth inhibition (%)” value [52] was 32.68% and the “Mean growth inhibition (%)” value [53] was 6.67%.
In the case of `O=C1Cc2c(sc3c(F)cccc23)C(c2ccccc2[N+](=O)[O-])N1` (stereo not shown) [Compound 3c], the “Growth inhibition (%)” value [1] is reported as −10.16%, the “Growth inhibition (%)” value [2] is reported as −15.87% and the “Growth inhibition (%)” value [3] is reported as 2.86%. For the same compound, the “Growth inhibition (%)” value [4] was −5.89%, the “Growth inhibition (%)” value [5] was 4.62% and the “Growth inhibition (%)” value [6] was 0.60%. The “Growth inhibition (%)” value [7] was −5.43%, the “Growth inhibition (%)” value [8] was 15.84% and the “Growth inhibition (%)” value [9] was 8.52%. The “Growth inhibition (%)” value [10] was 7.78%, the “Growth inhibition (%)” value [11] was 20.72% and the “Growth inhibition (%)” value [12] was 1.41%. The “Growth inhibition (%)” value [13] was 1.00%, the “Growth inhibition (%)” value [14] was 23.13% and the “Growth inhibition (%)” value [15] was −1.98%. For the same compound, the “Growth inhibition (%)” value [16] was −12.74%, the “Growth inhibition (%)” value [17] was −18.72% and the “Growth inhibition (%)” value [18] was 14.07%. For the same compound, the “Growth inhibition (%)” value [19] was −10.00%, the “Growth inhibition (%)” value [20] was −12.09% and the “Growth inhibition (%)” value [21] was −0.49%. The “Growth inhibition (%)” value [22] was 20.70%, the “Growth inhibition (%)” value [23] was 6.16% and the “Growth inhibition (%)” value [24] was −0.58%. For the same compound, the “Growth inhibition (%)” value [25] was 10.42%, the “Growth inhibition (%)” value [26] was −0.33% and the “Growth inhibition (%)” value [27] was 10.03%. For the same compound, the “Growth inhibition (%)” value [28] was 14.88%, the “Growth inhibition (%)” value [29] was 2.71% and the “Growth inhibition (%)” value [30] was 5.53%. The “Growth inhibition (%)” value [31] was −0.72%, the “Growth inhibition (%)” value [32] was −7.97% and the “Growth inhibition (%)” value [33] was −25.53%. For the same compound, the “Growth inhibition (%)” value [34] was −20.20%, the “Growth inhibition (%)” value [35] was 2.72% and the “Growth inhibition (%)” value [36] was −19.98%. The “Growth inhibition (%)” value [37] was 12.83%, the “Growth inhibition (%)” value [38] was 34.55% and the “Growth inhibition (%)” value [39] was 2.18%. The “Growth inhibition (%)” value [40] was 7.00%, the “Growth inhibition (%)” value [41] was −8.05% and the “Growth inhibition (%)” value [42] was −7.33%. For the same compound, the “Growth inhibition (%)” value [43] was −5.76%, the “Growth inhibition (%)” value [44] was 6.94% and the “Growth inhibition (%)” value [45] was −9.68%. The “Growth inhibition (%)” value [46] was −15.47%, the “Growth inhibition (%)” value [47] was −0.56% and the “Growth inhibition (%)” value [48] was 24.17%. The “Growth inhibition (%)” value [49] was −24.83%, the “Growth inhibition (%)” value [50] was 0.94% and the “Growth inhibition (%)” value [51] was −41.81%. The “Growth inhibition (%)” value [52] was 30.62% and the “Mean growth inhibition (%)” value [53] was 1.33%.
